pIC50: −log10 of the molar value. One block for each molecule: values may come before it.
What was measured:
[1] = Antiproliferative activity against human KYSE-170 cells assessed as cell growth inhibition measured after 48 hrs by CCK-8 assay; type: functional, cell-based; conditions: KYSE-170, 48 h
KYSE-410 = experiment: Antiproliferative activity against human KYSE-410 cells assessed as cell growth inhibition measured after 48 hrs by CCK-8 assay; type: functional, cell-based; conditions: KYSE-410, 48 h
KYSE-140 = experiment: Antiproliferative activity against human KYSE-140 cells assessed as cell growth inhibition measured after 48 hrs by CCK-8 assay; type: functional, cell-based; conditions: KYSE-140, 48 h
KYSE-30 = experiment: Antiproliferative activity against human KYSE-30 cells assessed as cell growth inhibition measured after 48 hrs by CCK-8 assay; type: functional, cell-based; conditions: KYSE-30, 48 h
KYSE-510 = experiment: Antiproliferative activity against human KYSE-510 cells assessed as cell growth inhibition measured after 48 hrs by CCK-8 assay; type: functional, cell-based; conditions: KYSE-510, 48 h
[2] = Cytotoxicity against HEK293 cells assessed as cell growth inhibition measured after 24 hrs by MTT assay; type: toxicity, cell-based; conditions: human
[3] = Cytotoxicity against human HaCaT cells assessed as cell growth inhibition measured after 24 hrs by MTT assay; type: toxicity, cell-based
DLD-1 = experiment: Cytotoxicity against human DLD-1 cells assessed as cell growth inhibition measured after 24 hrs by MTT assay; type: functional, cell-based; conditions: DLD-1, 24 h
[4] = Cytotoxicity against human Kidney epithelial cells assessed as cell growth inhibition measured after 24 hrs by XTT assay; type: toxicity, cell-based
MIA PaCa-2 = experiment: Antiproliferative activity against human MIA PaCa-2 cells assessed as cell growth inhibition measured after 48 hrs by SRB assay; type: functional, cell-based; conditions: MIA PaCa-2, 48 h
Bel-7402 = experiment: Antiproliferative activity against human Bel-7402 cells assessed as cell growth inhibition measured after 48 hrs by SRB assay; type: functional, cell-based; conditions: Bel-7402, 48 h
MCF7 [5] = experiment: Antiproliferative activity against human MCF7 cells assessed as cell growth inhibition measured after 48 hrs by SRB assay; type: functional, cell-based; conditions: MCF7, 48 h
HepG2 [6] = experiment: Antiproliferative activity against human HepG2 cells assessed as cell growth inhibition measured after 48 hrs by SRB assay; type: functional, cell-based; conditions: HepG2, 48 h
HepG2 [7] = experiment: Antitumor activity against human HepG2 xenografted in BALB/c nude mouse assessed as tumor growth inhibition at 10 mg/kg, iv administered every 2 days and measured upto 30 days relative to control; type: functional; conditions: HepG2, 720 h, time <= 30 day, read-out: TGI
Hep 3B2 = experiment: Cytotoxicity against human Hep3B cells assessed as cell growth inhibition measured after 48 hrs by MTT assay; type: functional, cell-based
SMMC-7721 = experiment: Cytotoxicity against human SMMC-7721 cells assessed as cell growth inhibition measured after 48 hrs by MTT assay; type: functional, cell-based; conditions: SMMC-7721, 48 h
HepG2 [8] = experiment: Cytotoxicity against human HepG2 cells assessed as cell growth inhibition measured after 48 hrs by MTT assay; type: functional, cell-based; conditions: HepG2, 48 h
[9] = Cytotoxicity against human QSG7701 cells assessed as cell growth inhibition measured after 48 hrs by MTT assay; type: toxicity, cell-based
HCT-116 = experiment: Antitumor activity against human HCT-116 cells xenografted in BALB/c nu/nu mouse assessed as reduction in tumor volume at 100 mg/kg/day, ip administered for 20 days measured by caliper relative to control; type: functional; parameters: scale not given: the % may be the effect or the level left; conditions: time 20 day
HeLa [10] = experiment: Cytotoxicity against human HeLa cells assessed as cell growth inhibition by MTT assay; type: functional, cell-based
NCI-H1299 = experiment: Cytotoxicity against human NCI-H1299 cells assessed as cell growth inhibition by Trypan blue staining based analysis; type: functional; conditions: pooled result: one value given for 6 cell lines, strains, targets or settings
A549 [11] = experiment: Antitumour activity against human A549 cells xenografted in mouse assessed as reduction in tumor volume at 3 mg/kg relative to control; type: functional; parameters: scale not given: the % may be the effect or the level left
HeLa [12] = experiment: Potency index, ratio of cisplatin IC50 to compound IC50 for antiproliferative activity against human HeLa cells by MTT assay; type: functional
HeLa [13] = experiment: Antiproliferative activity against human HeLa cells assessed as cell growth inhibition by MTT assay; type: functional, cell-based
MCF7 [14] = experiment: Cytotoxicity against human MCF7 cells assessed as cell growth inhibition measured after 72 hrs by MTT assay; type: functional, cell-based; conditions: MCF7, 72 h
[15] = Cytotoxicity against human MCF-12A cells assessed as cell growth inhibition measured after 72 hrs by MTT assay; type: toxicity, cell-based
MDA-MB-231 [16] = experiment: Cytotoxicity against human MDA-MB-231 cells assessed as cell growth inhibition measured after 72 hrs by MTT assay; type: functional, cell-based; conditions: MDA-MB-231, 72 h
HeLa [17] = experiment: Antiproliferative activity against human HeLa cells assessed as cell growth inhibition by WST-1 assay; type: functional, cell-based
CCRF-CEM = experiment: Antiproliferative activity against human CCRF-CEM cells assessed as cell growth inhibition measured after 48 hrs by SRB assay; type: functional, cell-based
A549 [18] = experiment: Antiproliferative activity against human A549 cells assessed as cell growth inhibition measured after 48 hrs by SRB assay; type: functional, cell-based; conditions: A549, 48 h
MDA-MB-231 [19] = experiment: Antiproliferative activity against human MDA-MB-231 cells assessed as cell growth inhibition measured after 72 hrs by MTT assay; type: functional, cell-based; conditions: MDA-MB-231, 72 h
MCF7 [20] = experiment: Antiproliferative activity against human MCF7 cells assessed as cell growth inhibition measured after 72 hrs by MTT assay; type: functional, cell-based; conditions: MCF7, 72 h
HepG2 [21] = experiment: Cytotoxicity against human HepG2 cells assessed as cell growth inhibition measured after 72 hrs by MTT assay; type: functional, cell-based; conditions: HepG2, 72 h
[22] = Cytotoxicity against human MCF-10A cells assessed as cell growth inhibition measured after 72 hrs by MTT assay; type: toxicity, cell-based
HeLa [23] = experiment: Cytotoxicity against human HeLa cells assessed as cell growth inhibition measured after 72 hrs by MTT assay; type: functional, cell-based; conditions: pooled result: one value given for 3 cell lines, strains, targets or settings
[24] = Cytotoxicity against mouse 3T3-L1 cells assessed as cell growth inhibition measured after 72 hrs by MTT assay; type: toxicity, cell-based

Structure (SMILES): COc1ccc(NS(=O)(=O)c2ccc3c(c2)c2cc(O)ccc2n3C)c(OC)n1
- pIC50 [1]: 8.00
- pIC50 (KYSE-410): 8.00
- pIC50 (KYSE-140): 8.00
- pIC50 (KYSE-30): 8.00
- pIC50 (KYSE-510): 8.00

Structure (SMILES): COc1ccc2c(c1)[nH]c1c3c(c(C)cc12)OC(C)(C)C=C3
- IC50 at 24 h [2]: > 100 µM
- IC50 at 24 h [3]: > 100 µM
- pIC50 (DLD-1): 4.75

Structure (SMILES): CN(C)CCCNC(=O)c1ccc(-n2cc(-c3ccc4c(c3)c3ccccc3n4CCCN(C)C)nn2)cc1
- IC50 at 24 h [4]: > 30 µM

- pIC50 (MIA PaCa-2): 5.25
- pIC50 (Bel-7402): 5.25
- pIC50 (MCF7 [5]): 5.25
- pIC50 (HepG2 [6]): 5.25
Structure (SMILES): COc1ccc(NS(=O)(=O)c2ccc3c(c2)c2cc(OCCCN4CCN(C)CC4)ccc2n3C)c(OC)n1
- inhibition in vivo at 10 mg/kg (HepG2 [7]): 61.1%

Structure (SMILES): CCOc1ccc2c(c1)c1c(n2CCN2CCNCC2)-c2cc(C(C)C)ccc2[C@@]2(C)CCC[C@@](C)(C(=O)OC)C12 (some centres undefined)
- pIC50 (Hep 3B2): 6.29
- pIC50 (SMMC-7721): 6.29
- pIC50 (HepG2 [8]): 6.29
- IC50 at 48 h [9]: 12.5 µM

Structure (SMILES): CCn1c2ccccc2c2cc(/C=N/NC(=O)c3ccccc3Cl)ccc21
- Activity (HCT-116): 35%
- pIC50 (HeLa [10]): 5.51

Structure (SMILES): CCn1c2ccccc2c2cc(NC(=O)NCCN3CCN(C(=O)c4ccco4)CC3)ccc21
- pIC50 (NCI-H1299): 5.75
- Activity (A549 [11]): 65%

Structure (SMILES): CCCCCCCCn1c2ccc(/C=C/C(=O)c3ccccc3[N+](=O)[O-])cc2c2cc(C(C)=O)ccc21
- Ratio IC50 (HeLa [12]): 2
- pIC50 (HeLa [13]): 5.25

Structure (SMILES): CC[n+]1c(/C=C/c2ccc3c(c2)c2ccccc2n3CCCCn2ccnc2)sc2ccccc21
- pIC50 (MCF7 [14]): 5.02
- IC50 at 72 h [15]: > 18 µM
- pIC50 (MDA-MB-231 [16]): 4.94

- pIC50 (HeLa [17]): 4.70
Structure (SMILES): CC(C)=CCCC1(C)C=Cc2c(c(C)cc3c2[nH]c2c(-c4c(O)ccc5c4[nH]c4c6c(c(C)cc45)OC(C)(CCC=C(C)C)C=C6)c(O)ccc23)O1 (centres undefined)

- pIC50 (CCRF-CEM): 5.97
- pIC50 (MCF7 [5]): 5.97
- pIC50 (A549 [18]): 5.97
Structure (SMILES): COc1ccc2c(c1)c1cc3c(-c4c([N+](=O)[O-])ncn4C)nccc3c(C)c1n2C

- pIC50 (MDA-MB-231 [19]): 5.36
- pIC50 (MCF7 [20]): 5.36
Structure (SMILES): C[N+](C)(C)CCN1CCN(CCCCCn2c3ccccc3c3cc(Cl)ccc32)CC1

Structure (SMILES): COc1cc(NC(=O)Nc2cc(C)c3[nH]c4ccc(C)cc4c3c2C)cc(OC)c1OC
- pIC50 (HepG2 [21]): 5.71
- pIC50 (MCF7 [14]): 5.71
- IC50 at 72 h [22]: 210 µM
- pIC50 (HeLa [23]): 5.71
- IC50 at 72 h [24]: 141 µM
- pIC50 (MDA-MB-231 [16]): 5.71

From ChEMBL document CHEMBL5126512, “Current status of carbazole hybrids as anticancer agents” (Eur J Med Chem, 2022)
